The NIST ThermoML archive (doi:10.1016/j.jct.2005.05.008)

What was measured:
[1] = 298.15 K; 101.33 kPa; Liquid
[2] = an = ratio of the nth substance listed, in mol/kg; conditions: 101 kPa, Liquid, Vibrating tube method

CC(=O)N(C)C [N,N-dimethylethanamide]
Conditions | mass density [kg/m3]
[1] | 936.357

CN(C)C=O [dimethylformamide]
Conditions | mass density [kg/m3]
[1] | 943.792

CN(C)C=O [dimethylformamide] + CCCC[N+](CCCC)(CCCC)CCCC.[O-][Cl+3]([O-])([O-])[O-]
[2], a2 = 0
Conditions | mass density [kg/m3]
283.15 K | 958.067
293.15 K | 948.553
298.15 K | 943.79
303.15 K | 939.014
313.15 K | 929.43
323.15 K | 919.797
333.15 K | 910.117

CN(C)C=O [dimethylformamide] + CCC[N+](CCC)(CCC)CCC.[O-][Cl+3]([O-])([O-])[O-]
[2], a2 = 0
Conditions | mass density [kg/m3]
283.15 K | 958.067
293.15 K | 948.553
298.15 K | 943.79
303.15 K | 939.014
313.15 K | 929.43
323.15 K | 919.797
333.15 K | 910.117

CN(C)C=O [dimethylformamide] + CC[N+](CC)(CC)CC.[O-][Cl+3]([O-])([O-])[O-]
[2], a2 = 0
Conditions | mass density [kg/m3]
283.15 K | 958.067
293.15 K | 948.553
298.15 K | 943.79
303.15 K | 939.014
313.15 K | 929.43
323.15 K | 919.797
333.15 K | 910.117

CN(C)C=O [dimethylformamide] + C[N+](C)(C)C.[O-][Cl+3]([O-])([O-])[O-]
[2], a2 = 0
Conditions | mass density [kg/m3]
283.15 K | 958.067
293.15 K | 948.553
298.15 K | 943.79
303.15 K | 939.014
313.15 K | 929.43
323.15 K | 919.797
333.15 K | 910.117

CCCC[N+](CCCC)(CCCC)CCCC.[O-][Cl+3]([O-])([O-])[O-] [tetrabutylammonium perchlorate] + CN(C)C=O
mass density [kg/m3], [2]
Conditions | a1 = 0.02852 | a1 = 0.05393 | a1 = 0.07866 | a1 = 0.1047 | a1 = 0.1431 | a1 = 0.1824 | a1 = 0.222 | a1 = 0.2619
283.15 K | 959.148 | 960.097 | 961.015 | 961.969 | 963.376 | 964.794 | 966.232 | 967.661
293.15 K | 949.672 | 950.653 | 951.604 | 952.588 | 954.042 | 955.511 | 956.99 | 958.466
298.15 K | 944.93 | 945.929 | 946.892 | 947.89 | 949.37 | 950.86 | 952.366 | 953.862
303.15 K | 940.173 | 941.191 | 942.17 | 943.187 | 944.69 | 946.204 | 947.732 | 949.254
313.15 K | 930.632 | 931.686 | 932.697 | 933.756 | 935.303 | 936.87 | 938.448 | 940.016
323.15 K | 921.05 | 922.138 | 923.191 | 924.277 | 925.877 | 927.496 | 929.126 | 930.747
333.15 K | 911.409 | 912.535 | 913.625 | 914.75 | 916.4 | 918.08 | 919.765 | 921.436

CC[N+](CC)(CC)CC.[O-][Cl+3]([O-])([O-])[O-] [tetraethylammonium perchlorate] + CN(C)C=O
mass density [kg/m3], [2]
Conditions | a1 = 0.02269 | a1 = 0.04218 | a1 = 0.06274 | a1 = 0.08215 | a1 = 0.1147 | a1 = 0.1455 | a1 = 0.1761 | a1 = 0.2062
283.15 K | 959.351 | 960.443 | 961.586 | 962.663 | 964.449 | 966.152 | 967.825 | 969.465
293.15 K | 949.863 | 950.975 | 952.142 | 953.234 | 955.047 | 956.775 | 958.473 | 960.139
298.15 K | 945.114 | 946.237 | 947.409 | 948.513 | 950.338 | 952.082 | 953.791 | 955.471
303.15 K | 940.349 | 941.482 | 942.667 | 943.781 | 945.623 | 947.378 | 949.101 | 950.793
313.15 K | 930.795 | 931.951 | 933.155 | 934.288 | 936.165 | 937.945 | 939.7 | 941.419
323.15 K | 921.19 | 922.369 | 923.599 | 924.748 | 926.661 | 928.473 | 930.257 | 932.007
333.15 K | 911.533 | 912.731 | 913.987 | 915.156 | 917.106 | 918.957 | 920.766 | 922.55
